Earlier results as cited in US9808446B2, “Method for decreasing symptoms of alcohol consumption” (Alcobra Ltd., priority 2007, dated 2017).

Legend:
frontoparietal cortex = details: guinea pigs, brain
[1] = long term data
[2] = not given; remark: listed apart in the source

## Cc1ncc(CO)c(CO)c1O.O=C1CC[C@@H](C(=O)O)N1 [Metadoxine, pyridoxol L,2-pyrrolidon-5 carboxylate]
Lu Yuan et al.
  mean half life in human serum: about 0.8 hour
oral
  bioavailability: 60-80%
  oral absorption: fast
Oral and intravenous, without appreciable differences
  half life in human serum: 40 to 60 min
Frontoparietal cortex
  level of GABA and acetylcholine in the frontoparietal cortex: increased
[1]
  safety for use by humans: safe
[2]; animal studies
  glutathione depletion in hepatic tissues: prevented
  oxidative stress in hepatic tissues: reduced
[2]; during chronic alcohol intake
  increased production of fatty acid esters in the liver: inhibited
